The values below come from PubChem BioAssay AID1259407 (Chemical Carcinogenesis Research Information System (CCRIS), 2018).

The subject of the series is CCRIS mutagenicity, Ames/micronucleus/aberration tests. Put plainly: CCRIS mutagenicity studies.
The mark [1] stands for this setting: Test System: AMES SALMONELLA TYPHIMURIUM, Strain/Indicator: TA98, Metabolic Activation: NONE, Method: PREINCUBATION
[2] abbreviates: Test System: AMES SALMONELLA TYPHIMURIUM, Strain/Indicator: TA100, Metabolic Activation: NONE, Method: PREINCUBATION

Structures are written as SMILES. Calls of active or inactive are those of the source. No rule for the calls is given here.

With `O=C/C(Br)=C/c1ccccc1`, the mutagenic call is, setting by setting: under setting [1], “active; positive”; (Test System: AMES SALMONELLA TYPHIMURIUM, Strain/Indicator: TA98, Metabolic Activation: NONE, Method: PREINCUBATION, LIQUID INCUBATION) “active; positive”; (Test System: AMES SALMONELLA TYPHIMURIUM, Strain/Indicator: TA98, Metabolic Activation: NONE, Method: STANDARD PLATE) “active; positive”; (Test System: AMES SALMONELLA TYPHIMURIUM, Strain/Indicator: TA98, Metabolic Activation: RAT, LIVER, S-9, AROCLOR 1254, Method: PREINCUBATION) “active; positive”; (Test System: AMES SALMONELLA TYPHIMURIUM, Strain/Indicator: TA98, Metabolic Activation: RAT, LIVER, S-9, PCB, Method: STANDARD PLATE) “active; positive”; under setting [2], “active; positive”. Besides, the mutagenic call by setting is: (Test System: AMES SALMONELLA TYPHIMURIUM, Strain/Indicator: TA100, Metabolic Activation: NONE, Method: STANDARD PLATE) “active; positive”; (Test System: AMES SALMONELLA TYPHIMURIUM, Strain/Indicator: TA100, Metabolic Activation: RAT, LIVER, S-9, AROCLOR 1254, Method: PREINCUBATION) “inactive; negative”; (Test System: AMES SALMONELLA TYPHIMURIUM, Strain/Indicator: TA100, Metabolic Activation: RAT, LIVER, S-9, PCB, Method: STANDARD PLATE) “active; positive”; (Test System: AMES SALMONELLA TYPHIMURIUM, Strain/Indicator: TA1535, Metabolic Activation: NONE, Method: PREINCUBATION) “active; positive”; (Test System: AMES SALMONELLA TYPHIMURIUM, Strain/Indicator: TA1535, Metabolic Activation: NONE, Method: PREINCUBATION, LIQUID INCUBATION) “active; positive”; (Test System: AMES SALMONELLA TYPHIMURIUM, Strain/Indicator: TA1535, Metabolic Activation: RAT, LIVER, S-9, AROCLOR 1254, Method: PREINCUBATION) “inactive; negative”. For the same compound, the mutagenic call (Test System: AMES SALMONELLA TYPHIMURIUM, Strain/Indicator: TA1538, Metabolic Activation: NONE, Method: PREINCUBATION) was “active; positive”; the mutagenic call (Test System: AMES SALMONELLA TYPHIMURIUM, Strain/Indicator: TA1538, Metabolic Activation: NONE, Method: PREINCUBATION, LIQUID INCUBATION) is “active; positive”; the mutagenic call (Test System: AMES SALMONELLA TYPHIMURIUM, Strain/Indicator: TA1538, Metabolic Activation: RAT, LIVER, S-9, AROCLOR 1254, Method: PREINCUBATION) was “active; positive”; the mutagenic call (Test System: AMES SALMONELLA TYPHIMURIUM, Strain/Indicator: TA2637, Metabolic Activation: NONE, Method: STANDARD PLATE) was “active; positive”; the mutagenic call (Test System: AMES SALMONELLA TYPHIMURIUM, Strain/Indicator: TA2637, Metabolic Activation: RAT, LIVER, S-9, PCB, Method: STANDARD PLATE) is “active; positive”.

As to `Cc1cc2nc3c(=O)[nH]c(=O)nc-3n(C[C@H](O)[C@H](O)[C@H](O)CO)c2cc1C`, the mutagenic call is, setting by setting: (End Point: IN VIVO MICRONUCLEUS, Test System: BONE MARROW POLYCHROMATIC ERYTHROCYTES, Species: MOUSE, Strain/Sex: DDY/MALE, Route: IP) “inactive; negative”; (Test System: AMES SALMONELLA TYPHIMURIUM, Strain/Indicator: TA97A, Metabolic Activation: NONE, Method: PREINCUBATION) “inactive; negative”; (Test System: AMES SALMONELLA TYPHIMURIUM, Strain/Indicator: TA97A, Metabolic Activation: RAT, CECAL CELL-FREE EXTRACT, Method: PREINCUBATION) “inactive; negative”; (Test System: AMES SALMONELLA TYPHIMURIUM, Strain/Indicator: TA97A, Metabolic Activation: RAT, LIVER, S9, AROCLOR 1254, Method: PREINCUBATION) “inactive; negative”; under setting [1], “inactive; negative”; (Test System: AMES SALMONELLA TYPHIMURIUM, Strain/Indicator: TA98, Metabolic Activation: RAT, CECAL CELL-FREE EXTRACT, Method: PREINCUBATION) “inactive; negative”. The mutagenic call reads like this: (Test System: AMES SALMONELLA TYPHIMURIUM, Strain/Indicator: TA98, Metabolic Activation: RAT, LIVER, S9, AROCLOR 1254, Method: PREINCUBATION) “inactive; negative”; under setting [2], “inactive; negative”; (Test System: AMES SALMONELLA TYPHIMURIUM, Strain/Indicator: TA100, Metabolic Activation: RAT, CECAL CELL-FREE EXTRACT, Method: PREINCUBATION) “inactive; negative”; (Test System: AMES SALMONELLA TYPHIMURIUM, Strain/Indicator: TA100, Metabolic Activation: RAT, LIVER, S9, AROCLOR 1254, Method: PREINCUBATION) “inactive; negative”; (Test System: AMES SALMONELLA TYPHIMURIUM, Strain/Indicator: TA102, Metabolic Activation: RAT, LIVER, S9, AROCLOR 1254, Method: PREINCUBATION) “inactive; negative”.
